# From PubChem BioAssay AID2060625 (Molecular Pharmacology Branch, DTP, NCI, 2025)
# System: 186277-243-T-J2-PDC spheroids with HUVEC/MSC, viability
# Assay: Anticancer human tumor 186277-243-T-J2-PDC patient-derived colon adenocarcinoma cell line growth inhibition [CLK]
# Details: for IC50: curve of first compound; for viability, T/C: stronger effect = lower value
# Excerpt: A high-throughput screen of multi-cell type tumor spheroids was designed to identify active combinations of […] and targeted small molecules. Complex spheroids include a stromal component modeled by human endothelial cells (HUVEC) and fibroblasts modeled by human mesenchymal stem cells (MSCs). The concentration ranges selected for each drug and investigational agent were based upon clinically achievable concentrations if the clinical Cmax of the agent was known.
# Compounds. The drugs and investigational agents: cirtuvivint (SM08502; NSC835563), CC-671 (NSC850746), vemurafenib (NSC761431), tapotoclax (NSC804041), sotorasib (NSC818433), adagrasib (NSC831453), MRTX-1133 (NSC836407), BAY2416964 (NSC825713), copanlisib (NSC816437), inavolisib (NSC800729), abemaciclib (NSC768073), osimertinib (NSC779217), entinostat (NSC756642), eltanexor (KPT-8602, NSC794443), venetoclax (NSC766270), ceralasertib (NSC777638), bortezomib (NSC756655), olaparib (NSC753686), talazoparib (NSC767125), alisertib (NSC759677), peposertib (NSC802822), gemcitabine (NSC613327), 5-fluorouracil (NSC19893), SN-38 (NSC673596), oxaliplatin (NSC266046), paclitaxel (NSC125973), and doxorubicin (NSC123127), were obtained from the National Cancer Institute (NCI) Developmental Therapeutics Program Chemical Repository. The FDA-approved anticancer drug set is available from the Developmental Therapeutics Program at https://dtp.cancer.gov/organization/dscb/obtaining/available plates.htm. […] The stock solutions were prepared in dimethyl sulfoxide (DMSO, Sigma-Aldrich, St. Louis, MO, cat. D2650), except for the platinum complexes which were prepared in saline (Quality Biological, Gaithersburg, MD, cat. 114-055-101), at 800-fold the tested concentration and stored at -70 degrees C prior to their use. All drugs and investigational agents were tested over a range starting from a high concentration at or near the clinical Cmax and decreasing in half-log increments. If the clinical Cmax for an agent had not been determined, the highest concentration tested was 10 microM.
# Cell Culture. All cells were maintained in an incubator at 37 degrees C and 5% CO2 with 95% humidity. The PDC lines were cultured according to standard operating procedures established by the NCI PDMR. Briefly, all PDCs were thawed and cultured in Matrigel-coated flasks prepared with a working solution of 1X Ham's F-12 nutrient mix, without supplementation (Invitrogen, Waltham, MA, cat. 11765054), 100 U/mL penicillin-streptomycin (Invitrogen, cat. 15140122), and 2.5% Matrigel (Corning Inc., Corning, NY, cat. 354248) for the first three passages. The 947758-054-R-J2-PDC line was cultured in 6B/Colon 1A media, which includes advanced DMEM/F-12 (Thermo Fisher Scientific, cat. 12634028), 10 mM HEPES (Thermo Fisher Scientific, cat. 15630080), 1X GlutaMAX supplement (Thermo Fisher Scientific, cat. 35050061), 0.1 mg/mL primocin (InvivoGen, cat. ant-pm-2), 10% defined fetal bovine serum, heat inactivated (HyClone Laboratories Inc., cat. SH30070.03HI), 1.25 mM N-Acetyl-L-cysteine (Sigma-Aldrich, cat. A9165), 10 mM nicotinamide (Sigma-Aldrich, cat. N0636), 1X B-27 supplement (Thermo Fisher Scientific, cat. 17504044), 1X N-2 supplement (Thermo Fisher Scientific, cat. 17502048), and 10 microM Y-27632 dihydrochloride (Tocris Bioscience, cat. 1254). The 876862-298-R-J1-PDC was cultured in 6E media, which includes all 6B/Colon 1A media components plus 50% L-WRN conditioned media (ATCC, cat. CRL-3276), 50 ng/mL recombinant human EGF recombinant protein (hEGF; Thermo Fisher Scientific, cat. PHG0311), 10 ng/mL recombinant human fibroblast growth factor 10 (hGFG-10; PeproTech, cat. 100-26), 1 ng/mL recombinant human fibroblast growth factor 2 (hFGF-2; PeproTech, cat. 100-18B), and 1 µM prostaglandin E2 (PGE2; Tocris, cat. 2296). The 227483-062-R1-J1-PDC line was cultured in Panc media, containing all 6E components except hFGF-2, with the addition of 500 nM SB-431542 (Selleckchem, cat. S1067) and 10 nM gastrin (Tocris, cat. 3006). […]
# [1] = second compound 0.0316 µM, first compound 0.0316 µM
# [2] = second compound 0.0316 µM, first compound 0.1 µM
# [3] = second compound 0.0316 µM, first compound 0.316 µM
# [4] = second compound 0.0316 µM, first compound 1 µM
# [5] = second compound 0.1 µM, first compound 0.0316 µM
# [6] = second compound 0.1 µM, first compound 0.1 µM
# [7] = second compound 0.1 µM, first compound 0.316 µM
# [8] = second compound 0.1 µM, first compound 1 µM
# [9] = second compound 0.316 µM, first compound 0.0316 µM
# [10] = second compound 0.316 µM, first compound 0.1 µM
# [11] = second compound 0.316 µM, first compound 0.316 µM
# [12] = second compound 0.316 µM, first compound 1 µM
# [13] = second compound 1 µM, first compound 0.0316 µM
# [14] = second compound 1 µM, first compound 0.1 µM
# [15] = second compound 1 µM, first compound 0.316 µM
# [16] = second compound 1 µM, first compound 1 µM
# [17] = second compound 3.16 µM, first compound 0.0316 µM
# [18] = second compound 3.16 µM, first compound 0.1 µM
# [19] = second compound 3.16 µM, first compound 0.316 µM
# [20] = second compound 3.16 µM, first compound 1 µM
# [21] = second compound 10 µM, first compound 0.0316 µM
# [22] = second compound 10 µM, first compound 0.1 µM
# [23] = second compound 10 µM, first compound 0.316 µM
# [24] = second compound 10 µM, first compound 1 µM
# [25] = second compound 0.0316 µM, first compound 0.00316 µM
# [26] = second compound 0.0316 µM, first compound 0.01 µM
# [27] = second compound 0.1 µM, first compound 0.00316 µM
# [28] = second compound 0.1 µM, first compound 0.01 µM
# [29] = second compound 0.316 µM, first compound 0.00316 µM
# [30] = second compound 0.316 µM, first compound 0.01 µM
# [31] = second compound 1 µM, first compound 0.00316 µM
# [32] = second compound 1 µM, first compound 0.01 µM
# [33] = second compound 3.16 µM, first compound 0.00316 µM
# [34] = second compound 3.16 µM, first compound 0.01 µM
# [35] = second compound 10 µM, first compound 0.00316 µM
# [36] = second compound 10 µM, first compound 0.01 µM
# 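Note: compound exposure lasted seven days before readout.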
# 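Throughout, for viability, T/C: 100% = DMSO vehicle control wells.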
smiles,measurement,setting,value
CC(Nc1ccc2c(c1)OCCn1cc(N3C(=O)OCC3C(F)F)nc1-2)C(N)=O (stereo unspecified) + CN1CCN(c2cc(C(=O)Nc3cc4cc(-c5cnn(C)c5)ccc4cn3)ccn2)CC1,IC50,second compound 0.0316 µM,828 nM
same,IC50,second compound 0.1 µM,158 nM
same,IC50,second compound 0.316 µM,< 31.6 nM
same,IC50,second compound 1 µM,< 31.6 nM
same,IC50,second compound 3.16 µM,< 31.6 nM
same,IC50,second compound 10 µM,< 31.6 nM
same,"viability, T/C",[1],87.7%
same,"viability, T/C",[2],94.8%
same,"viability, T/C",[3],59.2%
same,"viability, T/C",[4],55.8%
same,"viability, T/C","second compound 0.0316 µM, first compound 3.16 µM",46.4%
same,"viability, T/C","second compound 0.0316 µM, first compound 10 µM",42.4%
same,"viability, T/C",[5],71.8%
same,"viability, T/C",[6],54.4%
same,"viability, T/C",[7],42.3%
same,"viability, T/C",[8],30.4%
same,"viability, T/C","second compound 0.1 µM, first compound 3.16 µM",19.4%
same,"viability, T/C","second compound 0.1 µM, first compound 10 µM",13.4%
same,"viability, T/C",[9],20.5%
same,"viability, T/C",[10],17.4%
same,"viability, T/C",[11],7.85%
same,"viability, T/C",[12],3.43%
same,"viability, T/C","second compound 0.316 µM, first compound 3.16 µM",2.25%
same,"viability, T/C","second compound 0.316 µM, first compound 10 µM",1.31%
same,"viability, T/C",[13],0.25%
same,"viability, T/C",[14],0.73%
same,"viability, T/C",[15],0.91%
same,"viability, T/C",[16],0.46%
same,"viability, T/C","second compound 1 µM, first compound 3.16 µM",0.47%
same,"viability, T/C","second compound 1 µM, first compound 10 µM",1.48%
same,"viability, T/C",[17],1.24%
same,"viability, T/C",[18],0.72%
same,"viability, T/C",[19],1.34%
same,"viability, T/C",[20],0.69%
same,"viability, T/C","second compound 3.16 µM, first compound 3.16 µM",0.82%
same,"viability, T/C","second compound 3.16 µM, first compound 10 µM",0.74%
same,"viability, T/C",[21],0.96%
same,"viability, T/C",[22],1.39%
same,"viability, T/C",[23],0.74%
same,"viability, T/C",[24],0.87%
same,"viability, T/C","second compound 10 µM, first compound 3.16 µM",0.87%
same,"viability, T/C","second compound 10 µM, first compound 10 µM",0.69%
CCN1CCN(Cc2ccc(Nc3ncc(F)c(-c4cc(F)c5nc(C)n(C(C)C)c5c4)n3)nc2)CC1 + CN1CCN(c2cc(C(=O)Nc3cc4cc(-c5cnn(C)c5)ccc4cn3)ccn2)CC1,IC50,second compound 0.0316 µM,> 1000 nM
same,IC50,second compound 0.1 µM,> 1000 nM
same,IC50,second compound 0.316 µM,< 3.16 nM
same,IC50,second compound 1 µM,< 3.16 nM
same,IC50,second compound 3.16 µM,< 3.16 nM
same,IC50,second compound 10 µM,< 3.16 nM
same,"viability, T/C",[25],85.5%
same,"viability, T/C",[26],79.4%
same,"viability, T/C",[1],95.7%
same,"viability, T/C",[2],103%
same,"viability, T/C",[3],99%
same,"viability, T/C",[4],102%
same,"viability, T/C",[27],78.9%
same,"viability, T/C",[28],100%
same,"viability, T/C",[5],91.4%
same,"viability, T/C",[6],79.5%
same,"viability, T/C",[7],71.9%
same,"viability, T/C",[8],69.3%
same,"viability, T/C",[29],25.5%
same,"viability, T/C",[30],32.6%
same,"viability, T/C",[9],28.9%
same,"viability, T/C",[10],29.9%
same,"viability, T/C",[11],36.8%
same,"viability, T/C",[12],31.8%
same,"viability, T/C",[31],0.99%
same,"viability, T/C",[32],0.98%
same,"viability, T/C",[13],0.48%
same,"viability, T/C",[14],0.4%
same,"viability, T/C",[15],1.43%
same,"viability, T/C",[16],1.19%
same,"viability, T/C",[33],2.53%
same,"viability, T/C",[34],1.22%
same,"viability, T/C",[17],0.9%
same,"viability, T/C",[18],1.58%
same,"viability, T/C",[19],1.39%
same,"viability, T/C",[20],2.07%
same,"viability, T/C",[35],0.79%
same,"viability, T/C",[36],0.62%
same,"viability, T/C",[21],1.4%
same,"viability, T/C",[22],1.82%
same,"viability, T/C",[23],0.83%
same,"viability, T/C",[24],0.55%
COc1c(OCCCN2CCOCC2)ccc2c3n(c(=NC(=O)c4cnc(N)nc4)nc12)CCN3 + CN1CCN(c2cc(C(=O)Nc3cc4cc(-c5cnn(C)c5)ccc4cn3)ccn2)CC1,IC50,second compound 0.0316 µM,27 nM
same,IC50,second compound 0.1 µM,7.37 nM
same,IC50,second compound 0.316 µM,< 3.16 nM
same,IC50,second compound 1 µM,< 3.16 nM
same,IC50,second compound 3.16 µM,< 3.16 nM
same,IC50,second compound 10 µM,< 3.16 nM
same,"viability, T/C",[25],93.9%
same,"viability, T/C",[26],69%
same,"viability, T/C",[1],50%
same,"viability, T/C",[2],25.4%
same,"viability, T/C",[3],14.8%
same,"viability, T/C",[4],12.5%
same,"viability, T/C",[27],68.3%
same,"viability, T/C",[28],43%
same,"viability, T/C",[5],21.3%
same,"viability, T/C",[6],7.94%
same,"viability, T/C",[7],6.07%
same,"viability, T/C",[8],5.15%
same,"viability, T/C",[29],20%
same,"viability, T/C",[30],11.7%
same,"viability, T/C",[9],3.4%
same,"viability, T/C",[10],1.12%
same,"viability, T/C",[11],1.11%
same,"viability, T/C",[12],0.75%
same,"viability, T/C",[31],2.09%
same,"viability, T/C",[32],0.39%
same,"viability, T/C",[13],0.99%
same,"viability, T/C",[14],0.18%
same,"viability, T/C",[15],0.78%
same,"viability, T/C",[16],0.88%
same,"viability, T/C",[33],2.33%
same,"viability, T/C",[34],1.2%
same,"viability, T/C",[17],1.43%
same,"viability, T/C",[18],0.42%
same,"viability, T/C",[19],0.95%
same,"viability, T/C",[20],0.47%
same,"viability, T/C",[35],0.65%
same,"viability, T/C",[36],0.74%
same,"viability, T/C",[21],0.78%
same,"viability, T/C",[22],0.76%
same,"viability, T/C",[23],1.19%
same,"viability, T/C",[24],0.45%
